Assay results published in paper PMC7312375, “A Novel, Pan-PDE Inhibitor Exerts Anti-Fibrotic Effects in Human Lung Fibroblasts via Inhibition of TGF-β Signaling and Activation of cAMP/PKA Signaling” (International Journal of Molecular Sciences, 2020).

Tests used:
[1] = molecular target: T1, TRPA1 (Homo sapiens, UniProt O75762); experiment: TRPA1 antagonist FLIPR assay (functional, HEK293 cell-based)
T1 construct: host or cells: HEK293
Procedure: The TRPA1 agonist and antagonist fluorescent imaging plate reader (FLIPR) Assay (functional, HEK293 cell-based) was performed at Eurofins Panlabs, Inc. (St. Charles, MO, USA). The compounds were prepared in assay buffer to the final dilutions 10 and 50 µM. In each experiment, the respective reference compounds were tested: allyl isothiocyanate (the agonist assay) and ruthenium red (the antagonist assay). The […] assays were conducted on a FLIPR^TETRA instrument where the test compounds, vehicle controls, and reference agonists or antagonists were added to the assay plate after a fluorescence baseline was established. The agonist or antagonist incubation during the assay was for a total of 180 s and was used to assess each compound’s ability to activate or inactivate TRPA1. All plates were subjected to appropriate baseline corrections. Once baseline corrections were processed, maximum fluorescence values were exported, and data was manipulated to calculate percentage activation or percentage inhibition. Results showing activity greater than 25% were considered to represent significant effects of test compounds. Experiments were run three times, […].

[2] = molecular target: T2, PDE1C (Homo sapiens, UniProt Q14123); experiment: PDE-Glo assay, human recombinant PDE1C; format: biochemical; conditions: read-out: PDE-IC50 1C
T2 construct: purchased SignalChem
T2 sequence (Q14123 whole entry): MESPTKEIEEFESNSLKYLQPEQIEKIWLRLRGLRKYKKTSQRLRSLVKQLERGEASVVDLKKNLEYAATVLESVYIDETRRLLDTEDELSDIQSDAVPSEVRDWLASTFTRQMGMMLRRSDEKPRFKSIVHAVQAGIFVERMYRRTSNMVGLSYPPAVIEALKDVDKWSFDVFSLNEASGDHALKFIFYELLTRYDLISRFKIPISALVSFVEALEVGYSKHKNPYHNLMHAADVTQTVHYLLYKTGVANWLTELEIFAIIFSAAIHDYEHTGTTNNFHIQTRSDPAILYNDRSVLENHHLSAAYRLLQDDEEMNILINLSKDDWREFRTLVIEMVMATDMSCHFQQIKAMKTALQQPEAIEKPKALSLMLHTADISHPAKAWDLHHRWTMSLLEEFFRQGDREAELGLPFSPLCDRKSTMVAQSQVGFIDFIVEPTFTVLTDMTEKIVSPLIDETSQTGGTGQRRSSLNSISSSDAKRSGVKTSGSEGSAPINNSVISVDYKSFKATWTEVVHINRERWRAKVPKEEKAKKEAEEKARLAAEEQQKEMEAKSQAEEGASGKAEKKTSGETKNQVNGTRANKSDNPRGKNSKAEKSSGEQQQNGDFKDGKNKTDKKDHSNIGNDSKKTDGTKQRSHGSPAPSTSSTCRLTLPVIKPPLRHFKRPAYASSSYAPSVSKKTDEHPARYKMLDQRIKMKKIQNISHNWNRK
Procedure: Inhibitory activities of the investigated compounds against various subtypes of human recombinant (hr)PDEs, namely PDE1A, PDE1B, PDE1C, PDE3A, PDE3B, PDE4A, PDE4B, PDE4D, PDE7A, and PDE8A were assessed using a PDE-Glo^TM Assay Kit (Promega, Madison, WI, USA) according to the protocol provided by the manufacturer. Briefly, appropriate amounts of each enzyme (SignalChem, Richmond, B.C., Canada), diluted with PDE-Glo reaction buffer, were distributed on a 384-well plate (Thermo Scientific, Waltham, MA, USA). The investigated compounds were dissolved in DMSO, diluted with the same vehicle, and mixed with the reaction buffer at a v/v ratio of 1:5. Thereafter, 1 µL of these mixtures and 2.5 µL of the cAMP solution as a substrate were added. The final cAMP concentration was 0.05 µM. The samples were incubated for 10 min at 30 °C. Then, 2.5 µL of termination buffer and 2.5 µL of PDE-Glo detection solution were added to each well and incubated for 20 min. Finally, 10 µL of PDE-Glo kinase reagent was added, and luminescence was measured using the POLARstar Omega plate reader (BMG LABTECH, Ortenberg, Germany). Each sample was prepared in quadruplicate. The relative activities (A, %) of all samples were calculated from the following equation: A = [(LUsample − LUblank)/(LUcontrol − LUblank)]·100%; where LUcontrol is the luminescence of a control sample in the absence of a PDE inhibitor, LUsample is a luminescence of an investigated sample in the presence of an inhibitor, and LUblank is a luminescence of a sample in the absence of enzyme (activity = 0). IC50 values were estimated using non-linear regression.

[3] = system: MRC-5 cells; experiment: FBS-induced MRC-5 proliferation, alamarBlue assay; format: cell-based, human; conditions: for inhibition at 50 µM: Homo sapiens, MRC5, read-out: inhibition of FBS-induced MRC-5 proliferation rate; for MRC-5 proliferation [% of control]: 48 h with FBS
Procedure: The normal human lung fibroblast cell line—MRC-5 (ATCC® CCL-171™, Manassas, VA, USA)—was used in the study. Cells were cultured in Eagle’s Minimum Essential Medium (EMEM, ATCC® 30-2003™, Manassas, VA, USA) supplemented with 10% (v/v) fetal bovine serum (FBS; Gibco, Thermo Fisher Scientific, Waltham, MA, USA) and antibiotics mixture (penicillin, streptomycin, amphotericin B; Gibco, Thermo Fisher Scientific, Waltham, MA, USA) (standard culture medium) in standard culture conditions (5% CO2, 37 °C, 95% humidity). Unless otherwise specified, for the experiments, cells were seeded at a final density (5 × 10^3/cm^2) in standard culture medium for 24 h and then cultured in EMEM at reduced serum content (0.5%; v/v) for additional 24 h. TGF-β1 (BD Biosciences, San Jose, CA, USA) was administered at 5 ng/mL concentration in all experiments.
MRC-5 cell viability was evaluated using CytoTox-ONE™ Homogeneous Membrane Integrity Assay (Promega Corporation, Madison, WI, USA) according to the manufacturer’s protocol. The average fluorescence intensity with an excitation wavelength of 560 nm and an emission wavelength of 590 nm was measured using a microplate reader (SpectraMax® iD3, Molecular Devices, San Jose, CA, USA). Experiments were run three times in duplicates. MRC-5 proliferation was determined using the alamarBlue® assay. Cells were seeded for 24 h in standard culture medium, then serum-starved for an additional three days. Evaluated compounds (1-50 µM) were added 1 h prior FBS (10%, v/v) for an additional 48 h. After incubation, the alamarBlue® reagent (Invitrogen, Life Technologies, Carlsbad, CA, USA), dissolved in Hank’s Balanced Salt Solution (10% v/v; Gibco, Thermo Fisher Scientific, Waltham, MA, USA), was added for 30 min. After the observed color change, the supernatant was transferred to 96-well plates, and the absorbance was measured at 570 and 600 nm. The percent difference in reduction between treated and control cells was calculated according to the manufacturer’s protocol. The experiments were run three times in duplicates.

[4] = system: MRC-5 cells; experiment: Intracellular calcium measurements (Fluo-4); format: cell-based, human
Procedure: MRC-5 cells were briefly washed with NaHEPES buffer (NaHEPES buffer was prepared as follows: NaCl 140 mM, KCl 4.7 mM, HEPES 10 mM, MgCl2 1 mM, glucose 10 mM; pH 7.3) and then loaded with 1 µM Fluo-4 AM (Thermo Fisher Scientific, Waltham, MA, USA) for 1 h, 37 °C in NaHEPES. After the incubation, the cells were washed again with fresh NaHEPES and used for experiments in a flow chamber perfused with NaHEPES-based extracellular solution supplemented with 1 mM CaCl2. All experiments were carried out at room temperature using Zeiss LSM 880 confocal microscope (40× oil objective), excitation was set to 488 nm, and the emission was between 500 and 600 nm. Each series of images was recorded at 256 × 256-pixel resolution, two consecutive frames were averaged, and the interval between the averaged images was set at 2 s. Fluorescence signals were plotted as F/F0, where F0 was baseline fluorescence defined as the averaged signal from ten consecutive baseline images.

T1 sequence (O75762 whole entry, species assumed): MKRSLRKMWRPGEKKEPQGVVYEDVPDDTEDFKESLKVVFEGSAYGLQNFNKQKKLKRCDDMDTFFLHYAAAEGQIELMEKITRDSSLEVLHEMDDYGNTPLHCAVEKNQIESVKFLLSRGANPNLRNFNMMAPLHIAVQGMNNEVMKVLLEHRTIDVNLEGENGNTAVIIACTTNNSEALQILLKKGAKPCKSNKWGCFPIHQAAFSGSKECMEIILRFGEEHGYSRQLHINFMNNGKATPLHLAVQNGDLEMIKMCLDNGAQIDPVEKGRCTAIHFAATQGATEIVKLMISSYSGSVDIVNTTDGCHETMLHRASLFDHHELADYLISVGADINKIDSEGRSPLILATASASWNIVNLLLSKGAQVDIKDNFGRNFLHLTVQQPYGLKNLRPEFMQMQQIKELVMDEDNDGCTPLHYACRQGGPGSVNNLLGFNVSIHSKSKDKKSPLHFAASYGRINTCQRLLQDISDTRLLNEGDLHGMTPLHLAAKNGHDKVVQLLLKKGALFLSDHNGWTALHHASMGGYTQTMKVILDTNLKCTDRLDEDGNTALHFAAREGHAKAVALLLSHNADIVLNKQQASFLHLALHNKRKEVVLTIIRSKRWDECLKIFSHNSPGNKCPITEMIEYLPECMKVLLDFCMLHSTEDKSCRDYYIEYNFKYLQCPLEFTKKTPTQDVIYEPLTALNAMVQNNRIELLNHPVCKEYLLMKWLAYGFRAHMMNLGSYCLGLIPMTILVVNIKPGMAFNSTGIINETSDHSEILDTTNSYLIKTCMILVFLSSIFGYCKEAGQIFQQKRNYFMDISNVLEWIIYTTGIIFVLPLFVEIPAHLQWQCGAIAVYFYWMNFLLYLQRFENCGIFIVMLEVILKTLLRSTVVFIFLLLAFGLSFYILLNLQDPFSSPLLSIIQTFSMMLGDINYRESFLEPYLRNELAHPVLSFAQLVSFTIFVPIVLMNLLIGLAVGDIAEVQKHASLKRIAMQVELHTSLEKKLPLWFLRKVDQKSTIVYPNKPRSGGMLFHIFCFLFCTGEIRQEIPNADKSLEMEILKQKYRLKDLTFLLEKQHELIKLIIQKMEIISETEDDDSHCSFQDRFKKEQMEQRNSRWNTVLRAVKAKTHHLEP

SMILES	TRPA1 Inhibition (% of control) ([1]; 10 µM)	TRPA1 Inhibition (% of control) ([1]; 50 µM)	IC50 [2]	inhibition at 50 µM ([3]; 50 µM)	MRC-5 proliferation [% of control] ([3]; Table S1 (Figure 2B), 1 µM)	MRC-5 proliferation [% of control] ([3]; Table S1 (Figure 2B), 5 µM)	MRC-5 proliferation [% of control] ([3]; Table S1 (Figure 2B), 10 µM)	MRC-5 proliferation [% of control] ([3]; Table S1 (Figure 2B), 15 µM)	MRC-5 proliferation [% of control] ([3]; Table S1 (Figure 2B), 20 µM)	MRC-5 proliferation [% of control] ([3]; Table S1 (Figure 2B), 50 µM)	MRC-5 proliferation [% of control] ([3]; Table S2 (Figure 5B), 1 µM)	MRC-5 proliferation [% of control] ([3]; Table S2 (Figure 5B), 5 µM)	MRC-5 proliferation [% of control] ([3]; Table S2 (Figure 5B), 10 µM)	MRC-5 proliferation [% of control] ([3]; Table S2 (Figure 5B), 50 µM)	increase in average Ca2+ response area over baseline ([4]; 10 µM, acute application)	Ca2+ responses under TRPA1 inhibition by HC-030031 ([4]; 145 10 µM in the presence of HC-030031 10 µM)	effect on Ca2+ influx in lung fibroblasts ([4]; 10 µM, acute application)
CCCCOc1nc2c(c(=O)n(C)c(=O)n2C)n1CCCC(=O)Nc1cc(C(C)(C)C)ccc1O [Compound 145, 4-(8-butoxy-1,3-dimethyl-2,6-dioxo-1,2,3,6-tetrahydro-7H-purin-7-yl)-N-(5-(tert-butyl)-2-hydroxyphenyl)butanamide]	12.3 % of control	4.8 % of control	48.5 µM	58%	104 % of control	91 % of control	84 % of control	74 % of control	72 % of control	42 % of control	93 % of control	84 % of control	83 % of control	46 % of control	four-fold	failed to induce Ca^2+ responses	
Cn1c(=O)c2c(nc(NCc3ccco3)n2CCCC(=O)NN=Cc2ccc(O)cc2O)n(C)c1=O [Compound 832, N′-(2,4-dihydroxybenzylidene)-4-(8-((furan-2-ylmethyl)amino)-1,3-dimethyl-2,6-dioxo-1,2,3,6-tetrahydro-7H-purin-7-yl)butanehydrazide]	12.4 % of control	8.8 % of control	89.2 µM	39%	93 % of control	87 % of control	85 % of control	82 % of control	83 % of control	61 % of control					two-fold		
COc1nc2c(c(=O)n(C)c(=O)n2C)n1CC(=O)Nc1ccc(C(C)(C)C)cc1 [Compound 869, N-(4-(tert-butyl)phenyl)-2-(8-methoxy-1,3-dimethyl-2,6-dioxo-1,2,3,6-tetrahydro-7H-purin-7-yl)acetamide]	74.9 % of control	98.7 % of control	172 µM	25%	91 % of control	89 % of control	90 % of control	88 % of control	87 % of control	75 % of control							inhibited Ca^2+ influx
CC(C)Cn1c(=O)n(C)c(=O)c2[nH]cnc21 [IBMX, 3-isobutyl-1-methyl-3,7-dihydro-1H-purine-2,6-dione, reference compound]			12.5 µM	10%	102 % of control	99 % of control	98 % of control	100 % of control	95 % of control	90 % of control							
